{
  "source": "patent US20250195472A1",
  "about": "“Indole Alkaloid as Antineoplastic Agent” (NAPP TECNOLOGIAS, S.A. DE C.V., priority 2021, published 2025)",
  "key": {"[1]": {"system": "human peripheral blood lymphocytes", "assay": "Micronucleus test in human peripheral blood lymphocytes", "assay_type": "cell-based", "procedure": "[…] At 44 h, cytochalasin B (4.5 μg/mL) was added to all cultures and at 72 h the lymphocytes were harvested by centrifugation at 1500 rpm for 10 min. The cell bud was divided into 2 parts, one to perform the micronucleus test and the other was kept in PBS (pH 7.5) at −80° C. to perform the RT-qPCR tests.\nFor the micronucleus test, the first part of the cell bud was prefixed with 1 mL of Carnoy's fixative (3:1) and centrifuged at 1500 rpm for 10 min. The supernatant was removed, and the cell bud was resuspended. 5 mL of Carnoy fixative was added and centrifuged again at 1500 rpm for 10 min. This step was repeated 2 more times. Lamellae were made on slides using the drip technique and allowed to air dry. The samples were stained in 5% Giemsa dye and analyzed in the optical microscope at 40× to determine the frequency of micronuclei in 1000 cells (in duplicate)."}, "HCT-15 (colon)": {"system": "HCT-15 (colon)", "assay": "Sulforhodamine B growth inhibition, HCT-15 (colon)", "assay_type": "cell-based, human", "details": "for inhibition at 100 µM: Homo sapiens, HCT-15, read-out: Growth inhibition by cell line (%) HTC-15", "procedure": "(§1) For the evaluation of the cytotoxic effect of Andranone on neoplastic cells, 6 cell lines were used:\n(§2) HCT-15 (colon), MCF-7 (breast), K-562 (leukemia), U-251 (central nervous system), PC-3 (prostate), SKUL (lung) and COST-7 (cervical uterus) from the National Cancer Institute (NCI) of the United States. The cytotoxicity of Andranone was determined in sixfold microcultures using preferable Andranone concentrations between 0.1 and 1.0 μM, more specifically between 0.1 and 0.6 μM and mostly between 0.1 and 0.3 μM. Cell viability and growth were measured indirectly by the sulforhodamine B method according to procedures validated by the NCI, using salicylic acid and Mezalasin as negative control compounds, and Cis-platinum as a control antineoplastic drug at concentrations of 100 μM."}, "MCF-7 (breast)": {"system": "MCF-7 (breast)", "assay": "Sulforhodamine B growth inhibition, MCF-7 (breast)", "assay_type": "cell-based, human", "details": "for inhibition at 100 µM: Homo sapiens, MCF7, read-out: Growth inhibition by cell line (%) MCF-7", "procedure": "as §1, §2"}, "K-562 (leukemia)": {"system": "K-562 (leukemia)", "assay": "Sulforhodamine B growth inhibition, K-562 (leukemia)", "assay_type": "cell-based, human", "details": "for inhibition at 100 µM: Homo sapiens, K562, read-out: Growth inhibition by cell line (%) K-562", "procedure": "as §1, §2"}, "[2]": {"system": "U-251 (central nervous system)", "assay": "Sulforhodamine B growth inhibition, U-251 (central nervous system)", "assay_type": "cell-based, human", "details": "for inhibition at 100 µM: Homo sapiens, U-251, read-out: Growth inhibition by cell line (%) U-251", "procedure": "as §1, §2"}, "PC-3 (prostate)": {"system": "PC-3 (prostate)", "assay": "Sulforhodamine B growth inhibition, PC-3 (prostate)", "assay_type": "cell-based, human", "details": "for inhibition at 100 µM: Homo sapiens, read-out: Growth inhibition by cell line (%) PC-3", "procedure": "as §1, §2"}, "SKUL (lung)": {"system": "SKUL (lung)", "assay": "Sulforhodamine B growth inhibition, SKUL (lung)", "assay_type": "cell-based, human", "details": "for inhibition at 100 µM: Homo sapiens, read-out: Growth inhibition by cell line (%) SKUL", "procedure": "as §1, §2"}, "COST-7 (cervical uterus)": {"system": "COST-7 (cervical uterus)", "assay": "Sulforhodamine B growth inhibition, COST-7 (cervical uterus)", "assay_type": "cell-based, human", "details": "for inhibition at 100 µM: Homo sapiens, read-out: Growth inhibition by cell line (%) COST-7", "procedure": "as §1, §2"}, "U-251 cell line": {"system": "U-251 cell line", "assay": "Fluorescence analysis of effect on the cell membrane", "assay_type": "cell-based, human", "details": "high and low concentration (10 and 100 μM)", "procedure": "To determine the Andranone action mechanism on neoplastic cells, a fluorescence analysis was performed on cells of the U-251 cell line treated with 10 and 100 μM of cis-platinum and 0.1 and 0.2 μM of Andranone."}, "[3]": {"system": "PFSK-1 (brain, cerebral hemisphere)", "assay": "In vitro cytotoxic activity IC50, PFSK-1", "assay_type": "cell-based, human", "description": "(§3) Additionally, the cytotoxic activity was weighted by the IC50 of Andranone on 12 cell lines of neuronal origin, PFSK-1 (brain, cerebral hemisphere); A-172 (Glioblastoma, patient); SW1088 (Brain Fibroblast); Daoy (Brain, Cerebellum); 1321N1 (Normal brain cells) HT-29 (Colorectal Carcinoma); SW-620 (Colorectal carcinoma); H-358 (Lung carcinoma); A-549 (Lung carcinoma); LA-N-5 (Neuroblastoma); SK—N-SH (Neuroblastoma); and L-929 (Mouse fibrosarcoma) using Bevacizumab as a control. The IC50 determination of Andranone was carried out in microcultures in sixfold."}, "A-172 (Glioblastoma)": {"system": "A-172 (Glioblastoma)", "assay": "In vitro cytotoxic activity IC50, A-172", "assay_type": "cell-based, human", "description": "as §3"}, "[4]": {"system": "SW1088 (Brain Fibroblast)", "assay": "In vitro cytotoxic activity IC50, SW1088", "assay_type": "cell-based, human", "description": "as §3"}, "Daoy (Brain, Cerebellum)": {"system": "Daoy (Brain, Cerebellum)", "assay": "In vitro cytotoxic activity IC50, Daoy", "assay_type": "cell-based, human", "description": "as §3"}, "[5]": {"system": "1321N1 (Normal brain cells)", "assay": "In vitro cytotoxic activity IC50, 1321N1", "assay_type": "cell-based, human", "description": "as §3"}, "[6]": {"system": "HT-29 (Colorectal Carcinoma)", "assay": "In vitro cytotoxic activity IC50, HT-29", "assay_type": "cell-based, human", "description": "as §3"}, "[7]": {"system": "SW-620 (Colorectal carcinoma)", "assay": "In vitro cytotoxic activity IC50, SW-620", "assay_type": "cell-based, human", "description": "as §3"}, "H-358 (Lung carcinoma)": {"system": "H-358 (Lung carcinoma)", "assay": "In vitro cytotoxic activity IC50, H-358", "assay_type": "cell-based, human", "description": "as §3"}, "A-549 (Lung carcinoma)": {"system": "A-549 (Lung carcinoma)", "assay": "In vitro cytotoxic activity IC50, A-549", "assay_type": "cell-based, human", "description": "as §3"}, "LA-N-5 (Neuroblastoma)": {"system": "LA-N-5 (Neuroblastoma)", "assay": "In vitro cytotoxic activity IC50, LA-N-5", "assay_type": "cell-based, human", "description": "as §3"}, "SK-N-SH (Neuroblastoma)": {"system": "SK-N-SH (Neuroblastoma)", "assay": "In vitro cytotoxic activity IC50, SK-N-SH", "assay_type": "cell-based, human", "description": "as §3"}, "[8]": {"system": "L-929 (Mouse fibrosarcoma)", "assay": "In vitro cytotoxic activity IC50, L-929", "assay_type": "cell-based", "description": "as §3"}},
  "note": "pIC50: −log10 of the molar value.",
  "data": [
    {"compound": "Bleomycin", "values": [
      {"measurement": "IDN", "setting": "[1]; Bleomycin 3.2 μg/mL", "result": "1.60 ± 0.06"},
      {"measurement": "IPBC", "setting": "[1]; Bleomycin 3.2 mg/mL", "result": "1.56 ± 0.05"},
      {"measurement": "Relative cytotoxicity (%)", "setting": "[1]; Bleomycin 3.2 mg/mL", "result": 34.50, "unit": "%"},
      {"measurement": "frequency of MN", "setting": "[1]; positive control, 3.2 μg/mL, 72 h", "result": "significantly increased"}
    ]},
    {"compound": "O=C(O)c1ccccc1O", "note": "[Salicylic acid]", "values": [
      {"measurement": "inhibition at 100 µM", "setting": "HCT-15 (colon)", "result": "< 3.1", "unit": "%"},
      {"measurement": "inhibition at 100 µM", "setting": "MCF-7 (breast)", "result": 4.9, "unit": "%"},
      {"measurement": "inhibition at 100 µM", "setting": "K-562 (leukemia)", "result": 6.6, "unit": "%"},
      {"measurement": "inhibition at 100 µM", "setting": "[2]", "result": 6.8, "unit": "%"},
      {"measurement": "inhibition at 100 µM", "setting": "PC-3 (prostate)", "result": 6.9, "unit": "%"},
      {"measurement": "inhibition at 100 µM", "setting": "SKUL (lung)", "result": 10.1, "unit": "%"},
      {"measurement": "inhibition at 100 µM", "setting": "COST-7 (cervical uterus)", "result": 11.2, "unit": "%"}
    ]},
    {"compound": "N.N.[Cl][Pt][Cl]", "note": "[Cisplatin]", "values": [
      {"measurement": "Growth inhibition by cell line (%) HTC-15", "setting": "HCT-15 (colon); 100 μM", "result": 87.49, "unit": "%"},
      {"measurement": "Growth inhibition by cell line (%) MCF-7", "setting": "MCF-7 (breast); 100 μM", "result": 42.65, "unit": "%"},
      {"measurement": "Growth inhibition by cell line (%) K-562", "setting": "K-562 (leukemia); 100 μM", "result": 79.15, "unit": "%"},
      {"measurement": "Growth inhibition by cell line (%) U-251", "setting": "[2]; 100 μM", "result": 65.9, "unit": "%"},
      {"measurement": "Growth inhibition by cell line (%) PC-3", "setting": "PC-3 (prostate); 100 μM", "result": 32.42, "unit": "%"},
      {"measurement": "Growth inhibition by cell line (%) SKUL", "setting": "SKUL (lung); 100 μM", "result": 81.35, "unit": "%"},
      {"measurement": "Growth inhibition by cell line (%) COST-7", "setting": "COST-7 (cervical uterus); 100 μM", "result": 43.39, "unit": "%"},
      {"measurement": "fluorescence analysis, cell membrane / cell death", "setting": "U-251 cell line", "result": "cell membrane alteration without being so obvious"}
    ]},
    {"compound": "Nc1ccc(O)c(C(=O)O)c1", "note": "[Mesalazine]", "values": [
      {"measurement": "inhibition at 100 µM", "setting": "HCT-15 (colon)", "result": "< 3.1", "unit": "%"},
      {"measurement": "inhibition at 100 µM", "setting": "MCF-7 (breast)", "result": 11.9, "unit": "%"},
      {"measurement": "inhibition at 100 µM", "setting": "K-562 (leukemia)", "result": 8.1, "unit": "%"},
      {"measurement": "inhibition at 100 µM", "setting": "[2]", "result": 6.3, "unit": "%"},
      {"measurement": "inhibition at 100 µM", "setting": "PC-3 (prostate)", "result": 3.1, "unit": "%"},
      {"measurement": "inhibition at 100 µM", "setting": "SKUL (lung)", "result": "< 3.1", "unit": "%"},
      {"measurement": "inhibition at 100 µM", "setting": "COST-7 (cervical uterus)", "result": "< 3.1", "unit": "%"}
    ]},
    {"compound": "Bevacizumab: Bevacizumab used as a control in the IC50 determination", "values": [
      {"measurement": "pIC50", "setting": "[3]", "result": 4.51},
      {"measurement": "pIC50", "setting": "A-172 (Glioblastoma)", "result": 4.38},
      {"measurement": "pIC50", "setting": "[4]", "result": 4.33},
      {"measurement": "pIC50", "setting": "Daoy (Brain, Cerebellum)", "result": 4.53},
      {"measurement": "pIC50", "setting": "[5]", "result": 4.40},
      {"measurement": "pIC50", "setting": "[6]", "result": 4.42},
      {"measurement": "pIC50", "setting": "[7]", "result": 4.57},
      {"measurement": "pIC50", "setting": "H-358 (Lung carcinoma)", "result": 3.94},
      {"measurement": "pIC50", "setting": "A-549 (Lung carcinoma)", "result": 3.98},
      {"measurement": "pIC50", "setting": "LA-N-5 (Neuroblastoma)", "result": 4.10},
      {"measurement": "pIC50", "setting": "SK-N-SH (Neuroblastoma)", "result": 4.05},
      {"measurement": "pIC50", "setting": "[8]", "result": 3.90}
    ]}
  ]
}
